# According to patent publication US12358921B2, “Antiviral heterocyclic compounds” (priority 2022, dated 2025):
# Test system: hMPV A2 TN/94-49
# Assay: HMPV antiviral assay Method 2 (LLC-MK2 cells with CP-100-356, ATP-Lite)
# Type: cell-based
# Settings: hMPV A2 TN/94-49, LLC-MK2 cells, 4 μM CP-100-356, Method 2
# Description: In vitro HMPV antiviral activity was evaluated using the clinical isolate A2 strain TN 94-49 (obtained from Dr. John Williams, Vanderbilt University, Tennessee) and LLC-MK2 cells (Millipore Sigma CB_85062804), an immortalized kidney epithelial cell line from Macaca mulatta. Compounds were resuspended in dimethyl sulfoxide (DMSO) at 10 mM, serially diluted and added to a 384-well source plate. Subsequently, the compounds were diluted and transferred onto 384-well assay plates using the Echo-650 automated liquid handling system (Beckman Coulter, Indiana). The test compounds were assessed in duplicate at a top concentration of 200 nM followed by 2.5-fold serial dilutions to give a total of 10 concentration points. DMSO control wells were also included on the assay plates and were either infected or not, acting as positive and negative controls. A2 TN 94-49 virus infections were performed in-suspension with LLC-MK2 cells. The cells were washed twice with PBS and removed from the cell-culture flask with 0.25% trypsin-EDTA (Thermo Fisher Scientific, MA). The trypsin-EDTA was inactivated by resuspending in 2% fetal bovine serum (FBS) and OptiMEM (ThermoFisher Scientific, MA) containing 1% antibiotic-antimycotic. Cells were pelleted by centrifuging for 5 minutes at 800 rpm, the supernatant was removed, and cells were re-suspended and washed in PBS plus 100 μg/mL CaCl2). This step was performed twice. Cells were then re-suspended in serum-free (SF)-OptiMEM containing 4 μg/mL TPCK-Trypsin (Sigma Aldrich, MO), 1% antibiotic-antimycotic (ThermoFisher Scientific, MA), 100 μg/mL CaCl2), and 4 μM of CP-100-356, a P-glycoprotein inhibitor. Cells were counted and seeded at a density of 5,000 cells/well, 12.5 μL/well. Virus infections were done at a multiplicity of infection (MOI) of 0.16 with 12.5 μL added per well. Virus infections were performed in infection media which contained SF-OptiMEM, 100 μg/mL CaCl2) and 1% antibiotic-antimycotic. HMPV viral stocks are suspended in infection media+5% glycerol, thus an equal volume of infection media+5% glycerol was added to uninfected wells to equalize the final % glycerol across all wells of the assay plate. The final concentration of TPCK-trypsin was 2 μg/mL. The final concentration of CP-100-356 was 2 μM. The assay plates were incubated at 37° C., 5% CO2 for 7 days. After 7 days incubation, 12.5 μL of ATP-Lite (PerkinElmer, MA) was added to each well and the raw luminescence values were determined using the Envision 2104 (Perkin Elmer, MA). The average of the raw luminescence values for the cells and virus only positive control wells was subtracted from all conditions tested and the percent cell health was determined by dividing these values by the average of the cells only negative control wells. EC50 values were then calculated by non-linear regression using a four-parameter curve logistic equation. The curve fit model employed was XLFit Dose Response One Site Model 200: y=(A+(B/(1+((x/C)^D)))), where A is the minimum y value, B is the maximum y value, C is the log EC50value, and D is the slope factor.
row,SMILES,EC50 [nM]
1,COc1cc(C(=O)NC[C@@](O)(c2cccc(C(C)O)c2)c2cc3c(c(-c4cccc(Cl)c4Cl)n2)OC[C@]3(C)C(N)=O)cc2cn(C3CC3)nc12 (stereo partly shown) [Example 495],> 200
2,C[C@]1(C(N)=O)COc2c1cc([C@@](O)(CNC(=O)c1cc(OC3CC3)c3nc(C4CC4)sc3c1)c1ccccc1)nc2-c1cc(Cl)c(F)cc1F [Example 190],> 200
3,C[C@]1(C(N)=O)COc2c1cc([C@@](O)(CNC(=O)c1ccc3nc(C(F)F)oc3c1)c1ccccc1)nc2-c1cc(Cl)c(F)cc1F [Example 222],> 200
4,COc1cc(C(=O)NC[C@@](O)(c2ccccc2)c2cc3c(c(-c4cc(S(C)(=O)=O)ccc4F)n2)OC[C@]3(C)C(N)=O)cc2cn(C3(F)CC3)nc12 [Example 372],> 200
5,COc1cc(C(=O)NC[C@@](O)(c2ccccc2)c2cc3c(c(-c4cc(Cl)c(F)cc4F)n2)OC[C@]3(C)C(N)=O)cc(O)c1NC(=O)C1(F)CC1 [Example 242],> 200
6,C[C@]1(C(N)=O)COc2c1cc([C@@](O)(CNC(=O)c1ccc3nc(Cc4ccccc4)oc3c1)c1ccccc1)nc2-c1cc(Cl)c(F)cc1F [Example 230],> 200
7,COc1cc(C(=O)NCC(O)(c2ccccc2)c2cc3c(c(-c4ccc(F)cc4)n2)OC[C@]3(C)C(N)=O)cc2cn(C3(F)CC3)nc12 (stereo partly shown) [Example 361],> 200
8,C[C@]1(C(N)=O)COc2c1cc([C@@](O)(CNC(=O)c1ccc3nc(C4CCC4)oc3c1)c1ccccc1)nc2-c1cc(Cl)c(F)cc1F [Example 221],> 200
9,C[C@]1(C(N)=O)COc2c1cc([C@@](O)(CNC(=O)c1cc(Cl)c3nn(C(F)F)cc3c1)c1ccccc1)nc2-c1cc(Cl)c(F)cc1F [Example 102],> 200
10,COc1cc(C(=O)NC[C@@](O)(c2ccnc(F)c2)c2cc3c(c(-c4cccc(Cl)c4Cl)n2)OC[C@]3(C)C(N)=O)cc2cn(C3CC3)nc12 [Example 492],< 200
11,C[C@]1(C(N)=O)COc2c1cc([C@@](O)(CNC(=O)c1ccc3nc(C4CC4)oc3c1)c1ccccc1)nc2-c1cc(C(F)F)c(F)cc1F [Example 311],< 200
12,COc1cc([C@](O)(CNC(=O)c2cc(OC)c3nn(C4CC4)cc3c2)c2cc3c(c(-c4cccc(Cl)c4Cl)n2)OC[C@]3(C)C(N)=O)ccn1 [Example 494],< 200
13,C[C@]1(C(N)=O)COc2c1cc([C@@](O)(CNC(=O)c1cc(Cl)c3nc(C4CC4)oc3c1)c1ccccc1)nc2-c1cc(Cl)c(F)cc1F [Example 232],< 200
14,C[C@]1(C(N)=O)COc2c1cc([C@@](O)(CNC(=O)c1cc(C(F)F)c3nn(C4CC4)cc3c1)c1ccccc1)nc2-c1cc(Cl)c(F)cc1F [Example 229],< 200
15,Cc1nc2c(OC3CC3)cc(C(=O)NC[C@@](O)(c3ccccc3)c3cc4c(c(-c5cc(Cl)c(F)cc5F)n3)OC[C@]4(C)C(N)=O)cc2o1 [Example 234],< 200
16,COc1cc(C(=O)NC[C@@](O)(c2ccccc2)c2cc3c(c(-c4ccc5c(c4)OC(F)(F)O5)n2)OC[C@]3(C)C(N)=O)cc2oc(C3CC3)nc12 [Example 200],< 200
17,COc1cc([C@](O)(CNC(=O)c2cc(OC)c3nn(C4CC4)cc3c2)c2cc3c(c(-c4cc(Cl)c(F)cc4F)n2)OC[C@]3(C)C(N)=O)cc(F)n1 [Example 503],< 200
18,CC(C)c1nc2ccc(C(=O)NC[C@@](O)(c3ccccc3)c3cc4c(c(-c5cc(Cl)c(F)cc5F)n3)OC[C@]4(C)C(N)=O)cc2o1 [Example 224],> 200
19,C[C@]1(C(N)=O)COc2c1cc([C@@](O)(CNC(=O)c1cc(OC3CC3)c3nc(C4CC4)oc3c1)c1ccccc1)nc2-c1cc(Cl)c(F)cc1F [Example 233],< 200
20,C[C@]1(C(N)=O)COc2c1cc([C@@](O)(CNC(=O)c1cc(OC(F)F)c3ncc(Cl)cc3c1)c1ccccc1)nc2-c1cc(Cl)c(F)cc1F [Example 231],< 200
21,COc1cc(C(=O)NC[C@@](O)(c2ccccc2)c2cc3c(c(-c4cc(Cl)ccc4F)n2)OC[C@]3(C)C(N)=O)cc2oc(C3CC3)nc12 [Example 331],< 200
22,COc1cc(OC)c2cc(C(=O)NC[C@@](O)(c3ccccc3)c3cc4c(c(-c5cc(Cl)c(F)cc5F)n3)OC[C@]4(C)C(N)=O)[nH]c2c1 [Example 94],> 200
23,COc1cc(C(=O)NC[C@@](O)(c2ccccc2)c2cc3c(c(-c4cc(Cl)c(F)cc4F)n2)OC[C@]3(C)C(N)=O)cc2c1OCCC2 [Example 93],> 200
24,COc1cc(C(=O)NC[C@@](O)(c2ccccc2)c2cc3c(c(-c4cccc(F)c4F)n2)OC[C@]3(C)C(N)=O)cc2cn(C3(F)CC3)nc12 [Example 367],< 200
25,Cc1nc2c(OC(F)(F)F)cc(C(=O)NC[C@@](O)(c3ccccc3)c3cc4c(c(-c5cc(Cl)c(F)cc5F)n3)OC[C@]4(C)C(N)=O)cc2s1 [Example 188],> 200

# Now from value to molecule:
row,EC50 [nM],SMILES
1,< 200,C[C@]1(C(N)=O)COc2c1cc([C@@](O)(CNC(=O)c1cc(C(F)(F)F)c3nn(C4CC4)cc3c1)c1ccccc1)nc2-c1cc(Cl)c(F)cc1F [Example 228]
2,< 200,COc1cc(C(=O)NC[C@@](O)(c2cccc(F)c2)c2cc3c(c(-c4cccc(Cl)c4Cl)n2)OC[C@]3(C)C(N)=O)cc2cc(Cl)cnc12 [Example 333]
3,< 200,COc1c(F)ccc(-c2nc([C@@](O)(CNC(=O)c3cc(OC)c4nn(C5(F)CC5)cc4c3)c3ccccc3)cc3c2OC[C@]3(C)C(N)=O)c1Cl [Example 375]
4,< 200,C[C@]1(C(N)=O)COc2c1cc([C@@](O)(CNC(=O)c1cc(OC3CC3)n3nc(C4CC4)cc3c1)c1ccccc1)nc2-c1cc(Cl)c(F)cc1F [Example 191]
5,< 200,COc1cc(C(=O)NC[C@](O)(c2cc3c(c(-c4cc(Cl)c(F)cc4F)n2)OC[C@]3(C)C(N)=O)c2ccn(C)n2)cc2cn(C3CC3)nc12 [Example 480]
6,< 200,CNc1cc([C@](O)(CNC(=O)c2cc(OC)c3nn(C4CC4)cc3c2)c2cc3c(c(-c4cc(Cl)c(F)cc4F)n2)OC[C@]3(C)C(N)=O)ccn1 [Example 490]
7,< 200,Cc1cc(C(=O)NC[C@@](O)(c2ccccc2)c2cc3c(c(-c4cc(Cl)c(F)cc4F)n2)OC[C@]3(C)C(N)=O)cc2cn[nH]c12 [Example 118]
8,< 200,C[C@]1(C(N)=O)COc2c1cc([C@@](O)(CNC(=O)c1cc(OC3CC3)n3nc(C4CC4)cc3c1)c1cccc(F)c1)nc2-c1cccc(Cl)c1Cl [Example 335]
9,< 200,COc1cc(C(=O)NC[C@@](O)(c2ccccc2)c2cc3c(c(-c4ccc5c(c4)OC(F)(F)O5)n2)OC[C@]3(C)C(N)=O)cc2oc(C)nc12 [Example 201]
10,< 200,C[C@]1(C(N)=O)COc2c1cc([C@@](O)(CNC(=O)c1ccc3nc(C4CC4)oc3c1)c1cccc(F)c1)nc2-c1ccc(F)c(Cl)c1Cl [Example 312]
11,< 200,C[C@]1(C(N)=O)COc2c1cc([C@@](O)(CNC(=O)c1cc(OC3CC3)c3ncc(Cl)cc3c1)c1ccccc1)nc2-c1cc(C(F)(F)F)c(F)cc1F [Example 315]
12,< 200,COc1cc(C(=O)NC[C@@](O)(c2cnc(C3CC3)nc2)c2cc3c(c(-c4cc(Cl)c(F)cc4F)n2)OC[C@]3(C)C(N)=O)cc2cn(C3CC3)nc12 [Example 478]
13,< 200,COc1cc(C(=O)NC[C@@](O)(c2ccccc2)c2cc3c(c(-c4ccc5c(c4)OC(F)(F)O5)n2)OC[C@]3(C)C(N)=O)cc2cc(Cl)cnc12 [Example 202]
14,< 200,C[C@]1(C(N)=O)COc2c1cc([C@@](O)(CNC(=O)c1cc(OC3CC3)c3ncc(Cl)cc3c1)c1cccc(F)c1)nc2-c1cccc(Cl)c1Cl [Example 334]
15,< 200,C[C@]1(C(N)=O)COc2c1cc([C@@](O)(CNC(=O)c1cc(OC(F)F)c3nc(C4CC4)oc3c1)c1ccccc1)nc2-c1cc(Cl)c(F)cc1F [Example 216]
16,< 200,COc1cc(C(=O)NCC(O)(c2ccc(F)cn2)c2cc3c(c(-c4cc(Cl)c(F)cc4F)n2)OC[C@]3(C)C(N)=O)cc2cn(C3CC3)nc12 (stereo partly shown) [Example 210]
17,< 200,COc1cccc(-c2nc([C@@](O)(CNC(=O)c3cc(OC)c4nn(C5(F)CC5)cc4c3)c3ccccc3)cc3c2OC[C@]3(C)C(N)=O)c1Cl [Example 374]
18,< 200,COc1cc(C(=O)NCC(O)(c2ccccc2)c2cc3c(c(-c4ccc(F)c(Cl)c4)n2)OC[C@]3(C)C(N)=O)cc2cn(C3(F)CC3)nc12 (stereo partly shown) [Example 362]
